The values that follow come from US9868746B2, “Substituted 5-aminothieno[2,3-C]pyridazine-6-carboxamide analogs as positive allosteric modulators of the muscarinic acetylcholine receptor M4” (Vanderbilt University, priority 2012, dated 2018).

Where two headings read alike, the source gives them in different places. Some results are limits rather than exact numbers.

The assay addresses T1, mAChR M4 (Homo sapiens, UniProt P08173).
T1 construct: expressed in transfected cells; host or cells: CHO-K1 cells stably transfected with M4 cDNA and chimeric G-protein Gqi5
T1 sequence (P08173 1-479): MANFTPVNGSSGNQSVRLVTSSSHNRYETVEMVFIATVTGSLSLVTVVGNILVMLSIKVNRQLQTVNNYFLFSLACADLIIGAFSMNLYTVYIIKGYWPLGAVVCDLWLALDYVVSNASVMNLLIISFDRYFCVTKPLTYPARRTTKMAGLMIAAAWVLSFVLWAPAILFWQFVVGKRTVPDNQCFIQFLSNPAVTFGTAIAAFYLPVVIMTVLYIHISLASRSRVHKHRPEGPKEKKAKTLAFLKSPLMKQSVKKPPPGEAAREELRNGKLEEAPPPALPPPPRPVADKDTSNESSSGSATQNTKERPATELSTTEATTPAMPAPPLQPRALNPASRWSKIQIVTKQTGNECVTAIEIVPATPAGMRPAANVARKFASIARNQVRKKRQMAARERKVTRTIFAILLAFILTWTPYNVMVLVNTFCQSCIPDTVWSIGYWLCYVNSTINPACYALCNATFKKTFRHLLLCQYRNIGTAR
Description: mAChR M4 cell-based functional assay (calcium mobilization, potentiation of EC20 acetylcholine response). As to conditions: for Emax at 30 µM: % ACh maximum at 30 μM. Background: Calcium flux is commonly read through the fluorescence of an indicator in the cells.

The mark [1] stands for this setting: mAChR M4 cell-based functional assay, >10,000 estimated for low potency compounds without plateau, read-out: EC50.

As usually defined, the Emax is the maximal effect, on the per cent scale that the assay sets. The term EC50 denotes the concentration at which the effect is half-maximal. Turning to `COc1ccc(C2(CNC(=O)c3sc4nnc(C)c(C)c4c3N)CC2)cc1` [Example B75], the maximal effect (Emax) at 30 µM came to 41%. Moreover, under setting [1], the concentration for a half-maximal effect (EC50) was 360 nM. For `CS(=O)(=O)c1ccc(CNC(=O)c2sc3nnc(Cl)cc3c2N)cc1` [Example B76], in that order: 55% and 490 nM.

As for `Cc1nnc2sc(C(=O)N[C@@H]3CCN(S(C)(=O)=O)C3)c(N)c2c1C` [Example B77], the maximal response (Emax) at 30 µM amounted to 53%. Moreover, the concentration giving a half-maximal response (EC50) under setting [1] was 3500 nM. For `Cc1nnc2sc(C(=O)NCc3ccc(F)c(S(C)(=O)=O)c3)c(N)c2c1C` [Example B78] the same measures were 63% and 230 nM. On to `COc1ccc(C2CC2N(C)C(=O)c2sc3nnc(C)c(C)c3c2N)cc1` (stereo not shown) [Example B79], for which the Emax at 30 µM came to 35%. For the same compound, the EC50 under setting [1] is more than 10000 nM.

Regarding `Cc1nnc2sc(C(=O)NC3CN(S(C)(=O)=O)C3)c(N)c2c1C` [Example B80], the Emax at 30 µM came to 68%. Under setting [1], the half-maximal effective concentration (EC50) is 210 nM.

For the compound `Cc1nnc2sc(C(=O)NC3CNC3)c(N)c2c1C` [Example B81], the Emax at 30 µM turned out to be 34%. Moreover, the EC50 under setting [1] was more than 10000 nM. Consider `Cc1nnc2sc(C(=O)N[C@H]3CCN(S(C)(=O)=O)C3)c(N)c2c1C` [Example B82], for which the Emax at 30 µM was 59%. Also, the concentration for a half-maximal effect (EC50) under setting [1] was 460 nM.

On to `Cc1nnc2sc(C(=O)NC3CN(C(=O)OC(C)(C)C)C3)c(N)c2c1C` [Example B83], for which the Emax at 30 µM is 58%. Besides, the 50% effective concentration (EC50) under setting [1] is 29 nM.

As for `Cc1nnc2sc(C(=O)NC3CCC3)c(N)c2c1C` [Example B84], the maximal response (Emax) at 30 µM was 61%. In addition, the EC50 under setting [1] was 1000 nM.

As to `Cc1nnc2sc(C(=O)NCc3c(F)ccc(F)c3Cl)c(N)c2c1C` [Example B85], the maximum response (Emax) at 30 µM came to 58%. The EC50 under setting [1] is 47 nM. For `Cc1nnc2sc(C(=O)NCc3ccc4ccccc4c3)c(N)c2c1C` [Example B86] the same measures were 62% and 80 nM.

For `Cc1nnc2sc(C(=O)NC3CCCC3)c(N)c2c1C` [Example B87], the maximal response (Emax) at 30 µM was found to be 57%. Moreover, under setting [1], the concentration for a half-maximal effect (EC50) was 280 nM. For `Cc1cc(NC(=O)c2sc3nnc(C)c(C)c3c2N)ccn1` [Example B88] the same measures were 43% and 400 nM. `Cc1nnc2sc(C(=O)NCc3cnn(C)c3)c(N)c2c1C` [Example B89]: the maximum response (Emax) at 30 µM is 58%. The half-maximal effective concentration (EC50) under setting [1] is 320 nM. Regarding `COc1ccc(CNC(=O)c2sc3nnc(C)c(C)c3c2N)cc1F` [Example B90], the Emax at 30 µM was found to be 58%. As to `COCc1ccc(CNC(=O)c2sc3nnc(C)c(C)c3c2N)cc1` [Example B91], the Emax at 30 µM amounted to 53%. The EC50 under setting [1] was 97 nM. As to `Cc1nnc2sc(C(=O)NCc3ccc(S(=O)(=O)C4CC4)cc3)c(N)c2c1C` [Example B92], the Emax at 30 µM was 53%. In addition, the half-maximal effective concentration (EC50) (EC50 (nM)) was 23 nM. With `Cc1nnc2sc(C(=O)NCCc3ccncc3)c(N)c2c1C` [Example B93], the maximal effect (Emax) at 30 µM amounted to 49%. Also, under setting [1], the EC50 is 2300 nM.

As for `Cc1nnc2sc(C(=O)NCCc3ccccn3)c(N)c2c1C` [Example B94], the Emax at 30 µM was 47%. In addition, the EC50 under setting [1] is 5000 nM.

As to `Cc1nnc2sc(C(=O)NCc3ccc(O)cc3)c(N)c2c1C` [Example B95], the maximum response (Emax) at 30 µM turned out to be 66%. The 50% effective concentration (EC50) under setting [1] was 47 nM. For `Cc1nnc2sc(C(=O)NC3CCCOC3)c(N)c2c1C` (stereo not shown) [Example B96], in that order: 64% and more than 10000 nM. For the compound `Cc1nnc2sc(C(=O)NC3CCCCC3)c(N)c2c1C` [Example B97], the maximal response (Emax) at 30 µM was 75%. In addition, the EC50 under setting [1] was 1500 nM.

In the case of `Cc1ccc(S(=O)(=O)N2CC(NC(=O)c3sc4nnc(C)c(C)c4c3N)C2)s1` [Example B98], the Emax at 30 µM worked out at 66%. The EC50 under setting [1] is 63 nM. For `Cc1nnc2sc(C(=O)NC3CN(S(=O)(=O)c4ccco4)C3)c(N)c2c1C` [Example B99] the same measures were 65% and 160 nM. As for `Cc1nnc2sc(C(=O)NC3CN(S(=O)(=O)c4ccoc4)C3)c(N)c2c1C` [Example B100], the maximum response (Emax) at 30 µM is 68%. The EC50 under setting [1] is 180 nM. For `Cc1nc(C(F)(F)F)c(S(=O)(=O)N2CC(NC(=O)c3sc4nnc(C)c(C)c4c3N)C2)s1` [Example B101] the same measures were 66% and 84 nM. For `Cc1nnc2sc(C(=O)NCc3ccco3)c(N)c2c1C` [Example B102] the same measures were 81% and 1300 nM.

In the case of `Cc1nc(C)c(S(=O)(=O)N2CC(NC(=O)c3sc4nnc(C)c(C)c4c3N)C2)s1` [Example B103], the Emax at 30 µM was determined as 69%. Besides, the EC50 under setting [1] is 94 nM. For `Cc1nnc2sc(C(=O)NCc3ccc(C(C)S(C)(=O)=O)cc3)c(N)c2c1C` (stereo not shown) [Example B104] the same measures were 63% and 150 nM.

Regarding `Cc1nnc2sc(C(=O)NCc3ccc(C4(S(C)(=O)=O)CC4)cc3)c(N)c2c1C` [Example B105], the Emax at 30 µM was found to be 66%. The EC50 under setting [1] was 55 nM. In the case of `Cc1nnc2sc(C(=O)NCc3ccc(C(C)(O)C(F)(F)F)cc3)c(N)c2c1C` (stereo not shown) [Example B106], the Emax at 30 µM amounted to 71%. Moreover, the concentration for a half-maximal effect (EC50) under setting [1] is 20 nM.

Consider `Cc1nnc2sc(C(=O)N3CCCC(c4ccccc4)C3)c(N)c2c1C` (stereo not shown) [Example B107], for which the Emax at 30 µM came out at 52%. Also, the concentration for a half-maximal effect (EC50) under setting [1] was 1700 nM.

Regarding `Cc1nnc2sc(C(=O)NCc3ccc(S(=O)(=O)C(C)(C)C(F)(F)F)cc3)c(N)c2c1C` [Example B108], the Emax at 30 µM is 61%. The EC50 under setting [1] was 44 nM. Take `Cc1nnc2sc(C(=O)NC3CC3c3ccc(S(C)(=O)=O)cc3)c(N)c2c1C` (stereo not shown) [Example B109]: the Emax at 30 µM was 78%. The EC50 under setting [1] is 120 nM.

With `Cc1nnc2sc(C(=O)N3CCC(c4ccccc4)C3)c(N)c2c1C` (stereo not shown) [Example B112], the Emax at 30 µM worked out at 61%. Besides, the EC50 under setting [1] is 630 nM.

Regarding `Cc1nnc2sc(C(=O)NC3CCN(c4ccccc4)C3)c(N)c2c1C` (stereo not shown) [Example B113], the Emax at 30 µM stood at 66%. Moreover, under setting [1], the EC50 was 24 nM.

In the case of `Cc1ccc(S(=O)(=O)N2CCCN(C(=O)c3sc4nnc(C)c(C)c4c3N)CC2)cc1` [Example B114], the maximal response (Emax) at 30 µM was 48%. In addition, the EC50 under setting [1] was 1600 nM. Regarding `Cc1nnc2sc(C(=O)N3CCC(c4ccccc4)CC3)c(N)c2c1C` [Example B115], the Emax at 30 µM was 38%. For the same compound, the 50% effective concentration (EC50) under setting [1] was 3900 nM. For `Cc1nnc2sc(C(=O)N3CC(c4ccccc4)C3)c(N)c2c1C` [Example B116] the same measures were 75% and 160 nM. Turning to `Cc1nnc2sc(C(=O)NCc3ccc(S(=O)(=O)C(F)F)cc3)c(N)c2c1C` [Example B117], the Emax at 30 µM was 66%. Besides, the 50% effective concentration (EC50) (EC50 (nM)) was determined as 18 nM. Turning to `Cc1nnc2sc(C(=O)NCc3ccc(S(=O)(=O)C(C)(F)F)cc3)c(N)c2c1C` [Example B118], the maximum response (Emax) at 30 µM stood at 66%. Further, under setting [1], the EC50 was 10 nM. For `Cc1nnc2sc(C(=O)NC3CN(S(=O)(=O)CC(F)(F)F)C3)c(N)c2c1C` [Example B119] the same measures were 68% and 82 nM. Turning to `Cc1nnc2sc(C(=O)NC3CN(C(=O)CCCc4ccccc4)C3)c(N)c2c1C` [Example B120], the Emax at 30 µM stood at 86%. Besides, the EC50 under setting [1] is 190 nM. For `Cc1nnc2sc(C(=O)NC3CN(C(=O)C(C)(C)C)C3)c(N)c2c1C` [Example B121] the same measures were 92% and 840 nM.

In the case of `Cc1nnc2sc(C(=O)NC3CN(C(=O)C4CCC4)C3)c(N)c2c1C` [Example B122], the Emax at 30 µM came to 88%. The concentration for a half-maximal effect (EC50) under setting [1] is 180 nM.

`Cc1nnc2sc(C(=O)NC3CN(C(=O)C4CCCCC4)C3)c(N)c2c1C` [Example B123]: the maximal response (Emax) at 30 µM is 97%. Further, the EC50 under setting [1] was 130 nM. For `Cc1nnc2sc(C(=O)NC3CN(C(=O)OCc4ccccc4)C3)c(N)c2c1C` [Example B124] the same measures were 58% and 22 nM. For `Cc1nnc2sc(C(=O)NC3CN(C(=O)N4CCCCC4)C3)c(N)c2c1C` [Example B125], in that order: 58% and 1000 nM. For `Cc1nnc2sc(C(=O)NC3CN(C(=O)c4ccccn4)C3)c(N)c2c1C` [Example B126] the same measures were 92% and 290 nM.

Turning to `COc1cccc(C(=O)N2CC(NC(=O)c3sc4nnc(C)c(C)c4c3N)C2)c1` [Example B127], the Emax at 30 µM was determined as 82%. Further, under setting [1], the EC50 was 85 nM. Consider `Cc1nnc2sc(C(=O)NC3CN(C(=O)c4cccs4)C3)c(N)c2c1C` [Example B128], for which the Emax at 30 µM came to 78%. Under setting [1], the EC50 was 31 nM.

`Cc1nnc2sc(C(=O)NC3CN(C(=O)CCc4ccccc4)C3)c(N)c2c1C` [Example B129]: the maximum response (Emax) at 30 µM stood at 80%. Further, under setting [1], the EC50 was 110 nM. For `Cc1nnc2sc(C(=O)NC3CN(C(=O)c4ccc5ccccc5c4)C3)c(N)c2c1C` [Example B130], in that order: 79% and 97 nM. For `Cc1nnc2sc(C(=O)NC3CN(C(=O)c4ccc(F)c(F)c4)C3)c(N)c2c1C` [Example B131] the same measures were 76% and 150 nM.
